# Data as given in patent US9670208B2, “Serine/threonine kinase inhibitors” (Array BioPharma Inc., priority 2013, dated 2017).
# Columns and labels:
# [1] = target: human ERK-2 (Mitogen Activated Kinase 1) (Homo sapiens (Human), UniProt P28482); test: ERK-2 Enzymatic Assay; format: biochemical; conditions: ERK-2 enzyme, 25 μM ATP; single assay or mean of multiple assays; read-out: Biological Example 1 IC50
# [2] = tested on: PMA-stimulated P90RSK(Ser380) phosphorylation in HepG2 cells; test: Cellular P90RSK(Ser380) Phosphorylation Assay; format: cell-based; conditions: Homo sapiens, 1.5 hours compound incubation, PMA 100 ng/mL, normalized to GAPDH, single assay or mean of multiple assays, read-out: Biological Example 2 IC50
# Experimental: Inhibition of PMA-stimulated P90RSK(Ser380) phosphorylation was determined by the following in vitro cellular mechanistic assay, which comprises incubating cells with a compound for 1.5 hours and quantifying fluorescent pP90RSK(Ser380) signal on fixed cells and normalizing to GAPDH signal.
# HepG2 cells were obtained from ATCC (Manassas, Va.) and grown in DMEM supplemented with 10% fetal bovine serum. Cells were plated in 96-well plates at 35,000 cells/well and allowed to attach overnight at 37° C./5% CO2. Diluted compounds were then added at a final concentration of 0.5% DMSO. After 1.5 hours compound incubation, cells were stimulated with the addition of phorbol 12-myristate 13-acetate (“PMA”) at a final concentration of 100 ng/mL; the PMA stimulation was a 30-minute incubation at 37° C./5% CO2. After the 30-minute PMA stimulation, cells were washed with phosphate buffered saline (“PBS”) and fixed in 3.7% formaldehyde in PBS at room temperature for 15-20 minutes. This was followed by another wash in PBS and then permeabilization in 100% MeOH at room temperature for 10-15 minutes. Following the permeabilization incubation, cells were washed in PBS/0.05% Tween-20, followed by a block in Odyssey blocking buffer (LI-COR Biosciences) for at least 1 hour. Antibodies to phosphorylated P90RSK(Ser380) (Cell Signaling #9335, rabbit monoclonal) and GAPDH (Fitzgerald 10R-G109a, mouse monoclonal) were added to the cells and incubated overnight at 4° C. pP90RSK(Ser380) antibody was used at a 1:250 dilution; GAPDH was used at a 1:10,000 dilution. After washing with PBS/0.05% Tween-20, the cells were incubated with fluorescently-labeled secondary antibodies (Anti-rabbit-Alexa Flour680, Invitrogen Cat#A21109; Anti-mouse-IRDye800CW, Rockland Inc. Cat#610-131-121) for 1 hour. Both secondary antibodies were used at a 1:1000 dilution. Cells were then washed and analyzed for fluorescence at both wavelengths using the Odyssey Infrared Imaging System (LI-COR Biosciences). Phosphorylated P90RSK(Ser380) signal was normalized to GAPDH signal.
# Chain of human ERK-2 (Mitogen Activated Kinase 1) (P28482 8-360): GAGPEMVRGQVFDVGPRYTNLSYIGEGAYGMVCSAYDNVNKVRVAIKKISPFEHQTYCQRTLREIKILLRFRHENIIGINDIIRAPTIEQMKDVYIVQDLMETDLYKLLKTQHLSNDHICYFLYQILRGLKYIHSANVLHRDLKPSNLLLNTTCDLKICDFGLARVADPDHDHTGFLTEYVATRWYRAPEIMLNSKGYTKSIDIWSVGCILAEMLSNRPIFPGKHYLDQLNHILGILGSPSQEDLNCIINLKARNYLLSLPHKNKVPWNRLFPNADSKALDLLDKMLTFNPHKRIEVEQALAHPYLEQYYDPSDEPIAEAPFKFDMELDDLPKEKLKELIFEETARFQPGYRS
IC50 [1] [nM],SMILES,IC50 [2] [nM]
0.9,"COc1ccc(Cc2nnc3cc(-c4ccnc(NC5CCOCC5)n4)ccn23)cn1 [Example 272, 4-(3-((6-methoxypyridin-3-yl)methyl)-[1,2,4]triazolo[4,3-a]pyridin-7-yl)-N-(tetrahydro-2H-pyran-4-yl)pyrimidin-2-amine]",95.4
1.5,"Cn1nccc1Nc1nccc(-c2ccn3c(Cc4cccc(-c5ccccc5)n4)nnc3c2)n1 [Example 275, N-(1-methyl-1H-pyrazol-5-yl)-4-(3-((6-phenylpyridin-2-yl)methyl)-[1,2,4]triazolo[4,3-a]pyridin-7-yl)pyrimidin-2-amine]",20
0.9,"Cc1ccnc(Cc2nnc3cc(-c4ccnc(Nc5ccnn5C)n4)ccn23)c1 [Example 276, N-(1-methyl-1H-pyrazol-5-yl)-4-(3-((4-methylpyridin-2-yl)methyl)-[1,2,4]triazolo[4,3-a]pyridin-7-yl)pyrimidin-2-amine]",51.7
0.8,"c1ccc(Cc2nnc3cc(-c4ccnc(NC5CCOCC5)n4)ccn23)nc1 [Example 278, 4-(3-(pyridin-2-ylmethyl)-[1,2,4]triazolo[4,3-a]pyridin-7-yl)-N-(tetrahydro-2H-pyran-4-yl)pyrimidin-2-amine]",67.6
1.8,"Cn1nccc1Nc1nccc(-c2ccn3c(CS(=O)(=O)c4ccccc4)nnc3c2)n1 [Example 306, N-(1-methyl-1H-pyrazol-5-yl)-4-(3-((phenylsulfonyl)methyl)-[1,2,4]triazolo[4,3-a]pyridin-7-yl)pyrimidin-2-amine]",63.7
3.5,"Cn1nccc1Nc1nccc(-c2ccn3c(CSC4CCCC4)nnc3c2)n1 [Example 307, 4-(3-((cyclopentylthio)methyl)-[1,2,4]triazolo[4,3-a]pyridin-7-yl)-N-(1-methyl-1H-pyrazol-5-yl)pyrimidin-2-amine]",32.2
0.9,"Cn1nccc1Nc1nccc(-c2ccn3c(CC4CCC(F)(F)CC4)nnc3c2)n1 [Example 317, 4-(3-((4,4-difluorocyclohexyl)methyl)-[1,2,4]triazolo[4,3-a]pyridin-7-yl)-N-(1-methyl-1H-pyrazol-5-yl)pyrimidin-2-amine]",35.8
3,"Fc1ccccc1Cc1nnc2cc(-c3ccnc(NC4CCOCC4)n3)ccn12 [Example 398, 4-(3-(2-fluorobenzyl)-[1,2,4]triazolo[4,3-a]pyridin-7-yl)-N-(tetrahydro-2H-pyran-4-yl)pyrimidin-2-amine]",15.5
0.6,"Fc1ccc(Cc2nnc3cc(-c4ccnc(NC5CCOCC5)n4)ccn23)cc1 [Example 402, 4-(3-(4-fluorobenzyl)-[1,2,4]triazolo[4,3-a]pyridin-7-yl)-N-(tetrahydro-2H-pyran-4-yl)pyrimidin-2-amine]",27.4
0.9,"COc1ccc(Cc2nnc3cc(-c4ccnc(NC5CCOCC5)n4)ccn23)cc1F [Example 403, 4-(3-(3-fluoro-4-methoxybenzyl)-[1,2,4]triazolo[4,3-a]pyridin-7-yl)-N-(tetrahydro-2H-pyran-4-yl)pyrimidin-2-amine]",18.6
0.8,"CCOc1ccc(Cc2nnc3cc(-c4ccnc(Nc5ccnn5C)n4)ccn23)cn1 [Example 493, 4-(3-((6-ethoxypyridin-3-yl)methyl)-[1,2,4]triazolo[4,3-a]pyridin-7-yl)-N-(1-methyl-1H-pyrazol-5-yl)pyrimidin-2-amine]",117
661,"Cn1nccc1Nc1nccc(-c2ccn3c(CC(C)(O)C4CC4)nnc3c2)n1 (stereo not shown) [Example 563, 2-cyclopropyl-1-(7-(2-((1-methyl-1H-pyrazol-5-yl)amino)pyrimidin-4-yl)-[1,2,4]triazolo[4,3-a]pyridin-3-yl)propan-2-ol]",> 5000

# Second part, the molecule before the results:
SMILES,IC50 [1] [nM],IC50 [2] [nM]
"Cn1nccc1Nc1cc(-c2ccn3c(CC(C)(C)C)nnc3c2)ccn1 [Example 279, N-(1-methyl-1H-pyrazol-5-yl)-4-(3-neopentyl-[1,2,4]triazolo[4,3-a]pyridin-7-yl)pyridin-2-amine]",0.6,51.9
"Cn1nccc1Nc1cc(-c2ccn3c(CC4CC4)nnc3c2)ccn1 [Example 295, 4-(3-(cyclopropylmethyl)-[1,2,4]triazolo[4,3-a]pyridin-7-yl)-N-(1-methyl-1H-pyrazol-5-yl)pyridin-2-amine]",0.4,117
"CN(C)C(c1ccc(F)cc1)c1nnc2cc(-c3ccnc(Nc4ccnn4C)n3)ccn12 (stereo not shown) [Example 377, 4-(3-((dimethylamino)(4-fluorophenyl)methyl)-[1,2,4]triazolo[4,3-a]pyridin-7-yl)-N-(1-methyl-1H-pyrazol-5-yl)pyrimidin-2-amine]",5.4,82.9
"Cn1nccc1Nc1nccc(-c2ccn3c(CC45CC6CC(CC(C6)C4)C5)nnc3c2)n1 [Example 379, 4-(3-((1s,3s)-adamantan-1-ylmethyl)-[1,2,4]triazolo[4,3-a]pyridin-7-yl)-N-(1-methyl-1H-pyrazol-5-yl)pyrimidin-2-amine]",2.4,24.7
"Cn1nccc1Nc1cc(-c2ccn3c(CC4(C(F)(F)F)CC4)nnc3c2)ccn1 [Example 396, N-(1-methyl-1H-pyrazol-5-yl)-4-(3-((1-(trifluoromethyl)cyclopropyl)methyl)-[1,2,4]triazolo[4,3-a]pyridin-7-yl)pyridin-2-amine]",3.3,35.4
"Cn1nccc1Nc1nccc(-c2ccn3cnnc3c2)n1 [Example 411, 4-([1,2,4]triazolo[4,3-a]pyridin-7-yl)-N-(1-methyl-1H-pyrazol-5-yl)pyrimidin-2-amine]",11,607
"CC(=O)NC(Cc1nnc2cc(-c3ccnc(Nc4ccnn4C)n3)ccn12)c1ccc(F)c(Cl)c1 (stereo not shown) [Example 467, N-(1-(3-chloro-4-fluorophenyl)-2-(7-(2-((1-methyl-1H-pyrazol-5-yl)amino)pyrimidin-4-yl)-[1,2,4]triazolo[4,3-a]pyridin-3-yl)ethyl)acetamide]",1.8,3350
"Cn1nccc1Nc1nccc(-c2ccn3c(C(=O)N4CCCC4)nnc3c2)n1 [Example 512, (7-(2-((1-methyl-1H-pyrazol-5-yl)amino)pyrimidin-4-yl)-[1,2,4]triazolo[4,3-a]pyridin-3-yl)(pyrrolidin-1-yl)methanone]",172,> 5000
